Measurements as given in ChEMBL document CHEMBL1152441, “Discovery of [18F]N-(2-(diethylamino)ethyl)-6-fluoronicotinamide: a melanoma positron emission tomography imaging radiotracer with high tumor to body contrast ratio and rapid renal clearance” (J Med Chem, 2009).

Experiments:
[1] = Biodistribution in eye of mouse B16F0 cells implanted C57BL/6J mouse assessed per gram of tissue at 0.4 to 5.5 MBq, iv after 6 hrs by gamma counter; assay type: ADME, organism-based; settings: in vivo
Thyroid gland [2] = test: Biodistribution in thyroid of mouse B16F0 cells implanted C57BL/6J mouse assessed per gram of tissue at 0.4 to 5.5 MBq, iv after 2 hrs by gamma counter; assay type: ADME, organism-based; settings: in vivo
Bone [3] = test: Biodistribution in bone of mouse B16F0 cells implanted C57BL/6J mouse assessed per gram of tissue at 0.4 to 5.5 MBq, iv after 0.25 hrs by gamma counter; assay type: ADME, organism-based, Bone element; settings: in vivo
Intestine [4] = test: Biodistribution in intestine of mouse B16F0 cells implanted C57BL/6J mouse assessed per gram of tissue at 0.4 to 5.5 MBq, iv after 1 hr by gamma counter; assay type: ADME, organism-based; settings: in vivo
[5] = Biodistribution in tumor of mouse B16F0 cells implanted C57BL/6J mouse assessed per gram of tissue at 0.4 to 5.5 MBq, iv after 2 hrs by gamma counter; assay type: ADME, organism-based, Neoplasm; settings: in vivo
Bone [6] = test: Biodistribution in bone of mouse B16F0 cells implanted C57BL/6J mouse assessed per gram of tissue at 0.4 to 5.5 MBq, iv after 1 hr by gamma counter; assay type: ADME, organism-based, Bone element; settings: in vivo
Intestine [7] = test: Biodistribution in intestine of mouse B16F0 cells implanted C57BL/6J mouse assessed per gram of tissue at 0.4 to 5.5 MBq, iv after 0.25 hrs by gamma counter; assay type: ADME, organism-based; settings: in vivo
Thyroid gland [8] = test: Biodistribution in thyroid of mouse B16F0 cells implanted C57BL/6J mouse assessed per gram of tissue at 0.4 to 5.5 MBq, iv after 3 hrs by gamma counter; assay type: ADME, organism-based; settings: in vivo
Thyroid gland [9] = test: Biodistribution in thyroid of mouse B16F0 cells implanted C57BL/6J mouse assessed per gram of tissue at 0.4 to 5.5 MBq, iv after 0.5 hrs by gamma counter; assay type: ADME, organism-based; settings: in vivo
[10] = Biodistribution in eye of mouse B16F0 cells implanted C57BL/6J mouse assessed per gram of tissue at 0.4 to 5.5 MBq, iv after 2 hrs by gamma counter; assay type: ADME, organism-based; settings: in vivo
Spleen [11] = test: Biodistribution in spleen of mouse B16F0 cells implanted C57BL/6J mouse assessed per gram of tissue at 0.4 to 5.5 MBq, iv after 0.25 hrs by gamma counter; assay type: ADME, organism-based; settings: in vivo
Stomach [12] = test: Biodistribution in stomach of mouse B16F0 cells implanted C57BL/6J mouse assessed per gram of tissue at 0.4 to 5.5 MBq, iv after 2 hrs by gamma counter; assay type: ADME, organism-based; settings: in vivo
[13] = Biodistribution in tumor of mouse B16F0 cells implanted C57BL/6J mouse assessed per gram of tissue at 0.4 to 5.5 MBq, iv after 1 hr by gamma counter; assay type: ADME, organism-based, Neoplasm; settings: in vivo
Bone [14] = test: Biodistribution in bone of mouse B16F0 cells implanted C57BL/6J mouse assessed per gram of tissue at 0.4 to 5.5 MBq, iv after 6 hrs by gamma counter; assay type: ADME, organism-based, Bone element; settings: in vivo
Intestine [15] = test: Biodistribution in intestine of mouse B16F0 cells implanted C57BL/6J mouse assessed per gram of tissue at 0.4 to 5.5 MBq, iv after 6 hrs by gamma counter; assay type: ADME, organism-based; settings: in vivo
Lung [16] = test: Biodistribution in lung of mouse B16F0 cells implanted C57BL/6J mouse assessed per gram of tissue at 0.4 to 5.5 MBq, iv after 2 hrs by gamma counter; assay type: ADME, organism-based; settings: in vivo
[17] = Biodistribution in tumor of mouse B16F0 cells implanted C57BL/6J mouse assessed per gram of tissue at 0.4 to 5.5 MBq, iv after 0.5 hrs by gamma counter; assay type: ADME, organism-based, Neoplasm; settings: in vivo
[18] = Biodistribution in eye of mouse B16F0 cells implanted C57BL/6J mouse assessed per gram of tissue at 0.4 to 5.5 MBq, iv after 1 hr by gamma counter; assay type: ADME, organism-based; settings: in vivo
Thyroid gland [19] = test: Biodistribution in thyroid of mouse B16F0 cells implanted C57BL/6J mouse assessed per gram of tissue at 0.4 to 5.5 MBq, iv after 1 hr by gamma counter; assay type: ADME, organism-based; settings: in vivo
Thyroid gland [20] = test: Biodistribution in thyroid of mouse B16F0 cells implanted C57BL/6J mouse assessed per gram of tissue at 0.4 to 5.5 MBq, iv after 0.25 hrs by gamma counter; assay type: ADME, organism-based; settings: in vivo
Stomach [21] = test: Biodistribution in stomach of mouse B16F0 cells implanted C57BL/6J mouse assessed per gram of tissue at 0.4 to 5.5 MBq, iv after 3 hrs by gamma counter; assay type: ADME, organism-based; settings: in vivo
Spleen [22] = test: Biodistribution in spleen of mouse B16F0 cells implanted C57BL/6J mouse assessed per gram of tissue at 0.4 to 5.5 MBq, iv after 6 hrs by gamma counter; assay type: ADME, organism-based; settings: in vivo
Stomach [23] = test: Biodistribution in stomach of mouse B16F0 cells implanted C57BL/6J mouse assessed per gram of tissue at 0.4 to 5.5 MBq, iv after 1 hr by gamma counter; assay type: ADME, organism-based; settings: in vivo
Intestine [24] = test: Biodistribution in intestine of mouse B16F0 cells implanted C57BL/6J mouse assessed per gram of tissue at 0.4 to 5.5 MBq, iv after 2 hrs by gamma counter; assay type: ADME, organism-based; settings: in vivo
Bone [25] = test: Biodistribution in bone of mouse B16F0 cells implanted C57BL/6J mouse assessed per gram of tissue at 0.4 to 5.5 MBq, iv after 2 hrs by gamma counter; assay type: ADME, organism-based, Bone element; settings: in vivo
Lung [26] = test: Biodistribution in lung of mouse B16F0 cells implanted C57BL/6J mouse assessed per gram of tissue at 0.4 to 5.5 MBq, iv after 3 hrs by gamma counter; assay type: ADME, organism-based; settings: in vivo
Stomach [27] = test: Biodistribution in stomach of mouse B16F0 cells implanted C57BL/6J mouse assessed per gram of tissue at 0.4 to 5.5 MBq, iv after 0.5 hrs by gamma counter; assay type: ADME, organism-based; settings: in vivo
Spleen [28] = test: Biodistribution in spleen of mouse B16F0 cells implanted C57BL/6J mouse assessed per gram of tissue at 0.4 to 5.5 MBq, iv after 0.5 hrs by gamma counter; assay type: ADME, organism-based; settings: in vivo
[29] = Biodistribution in tumor of mouse B16F0 cells implanted C57BL/6J mouse assessed per gram of tissue at 0.4 to 5.5 MBq, iv after 3 hrs by gamma counter; assay type: ADME, organism-based, Neoplasm; settings: in vivo
Spleen [30] = test: Biodistribution in spleen of mouse B16F0 cells implanted C57BL/6J mouse assessed per gram of tissue at 0.4 to 5.5 MBq, iv after 1 hr by gamma counter; assay type: ADME, organism-based; settings: in vivo
Intestine [31] = test: Biodistribution in intestine of mouse B16F0 cells implanted C57BL/6J mouse assessed per gram of tissue at 0.4 to 5.5 MBq, iv after 3 hrs by gamma counter; assay type: ADME, organism-based; settings: in vivo
Stomach [32] = test: Biodistribution in stomach of mouse B16F0 cells implanted C57BL/6J mouse assessed per gram of tissue at 0.4 to 5.5 MBq, iv after 6 hrs by gamma counter; assay type: ADME, organism-based; settings: in vivo
Stomach [33] = test: Biodistribution in stomach of mouse B16F0 cells implanted C57BL/6J mouse assessed per gram of tissue at 0.4 to 5.5 MBq, iv after 0.25 hrs by gamma counter; assay type: ADME, organism-based; settings: in vivo
Thyroid gland [34] = test: Biodistribution in thyroid of mouse B16F0 cells implanted C57BL/6J mouse assessed per gram of tissue at 0.4 to 5.5 MBq, iv after 6 hrs by gamma counter; assay type: ADME, organism-based; settings: in vivo
Lung [35] = test: Biodistribution in lung of mouse B16F0 cells implanted C57BL/6J mouse assessed per gram of tissue at 0.4 to 5.5 MBq, iv after 0.25 hrs by gamma counter; assay type: ADME, organism-based; settings: in vivo
Lung [36] = test: Biodistribution in lung of mouse B16F0 cells implanted C57BL/6J mouse assessed per gram of tissue at 0.4 to 5.5 MBq, iv after 1 hr by gamma counter; assay type: ADME, organism-based; settings: in vivo
Bone [37] = test: Biodistribution in bone of mouse B16F0 cells implanted C57BL/6J mouse assessed per gram of tissue at 0.4 to 5.5 MBq, iv after 0.5 hrs by gamma counter; assay type: ADME, organism-based, Bone element; settings: in vivo
Spleen [38] = test: Biodistribution in spleen of mouse B16F0 cells implanted C57BL/6J mouse assessed per gram of tissue at 0.4 to 5.5 MBq, iv after 3 hrs by gamma counter; assay type: ADME, organism-based; settings: in vivo
Intestine [39] = test: Biodistribution in intestine of mouse B16F0 cells implanted C57BL/6J mouse assessed per gram of tissue at 0.4 to 5.5 MBq, iv after 0.5 hrs by gamma counter; assay type: ADME, organism-based; settings: in vivo
[40] = Biodistribution in eye of mouse B16F0 cells implanted C57BL/6J mouse assessed per gram of tissue at 0.4 to 5.5 MBq, iv after 0.25 hrs by gamma counter; assay type: ADME, organism-based; settings: in vivo
[41] = Biodistribution in tumor of mouse B16F0 cells implanted C57BL/6J mouse assessed per gram of tissue at 0.4 to 5.5 MBq, iv after 6 hrs by gamma counter; assay type: ADME, organism-based, Neoplasm; settings: in vivo
Bone [42] = test: Biodistribution in bone of mouse B16F0 cells implanted C57BL/6J mouse assessed per gram of tissue at 0.4 to 5.5 MBq, iv after 3 hrs by gamma counter; assay type: ADME, organism-based, Bone element; settings: in vivo
Lung [43] = test: Biodistribution in lung of mouse B16F0 cells implanted C57BL/6J mouse assessed per gram of tissue at 0.4 to 5.5 MBq, iv after 6 hrs by gamma counter; assay type: ADME, organism-based; settings: in vivo
[44] = Biodistribution in eye of mouse B16F0 cells implanted C57BL/6J mouse assessed per gram of tissue at 0.4 to 5.5 MBq, iv after 0.5 hrs by gamma counter; assay type: ADME, organism-based; settings: in vivo
[45] = Lipophilicity, log P at pH 7.5; assay type: physicochemical; settings: buffer
[46] = Biodistribution in eye of mouse B16F0 cells implanted C57BL/6J mouse assessed per gram of tissue at 0.4 to 5.5 MBq, iv after 3 hrs by gamma counter; assay type: ADME, organism-based; settings: in vivo
[47] = Biodistribution in tumor of mouse B16F0 cells implanted C57BL/6J mouse assessed per gram of tissue at 0.4 to 5.5 MBq, iv after 0.25 hrs by gamma counter; assay type: ADME, organism-based, Neoplasm; settings: in vivo
Lung [48] = test: Biodistribution in lung of mouse B16F0 cells implanted C57BL/6J mouse assessed per gram of tissue at 0.4 to 5.5 MBq, iv after 0.5 hrs by gamma counter; assay type: ADME, organism-based; settings: in vivo
Spleen [49] = test: Biodistribution in spleen of mouse B16F0 cells implanted C57BL/6J mouse assessed per gram of tissue at 0.4 to 5.5 MBq, iv after 2 hrs by gamma counter; assay type: ADME, organism-based; settings: in vivo

## CCN(CC)CCNC(=O)c1ccc([18F])nc1
[1]
  Drug uptake: 15.6%
Thyroid gland [2]
  Drug uptake: 0.61%
Bone [3]
  Drug uptake: 3.5%
Intestine [4]
  Drug uptake: 2.1%
[5]
  Drug uptake: 9.4%
Bone [6]
  Drug uptake: 1.4%
Intestine [7]
  Drug uptake: 5.4%
Thyroid gland [8]
  Drug uptake: 0.49%
Thyroid gland [9]
  Drug uptake: 2.5%
[10]
  Drug uptake: 17.3%
Spleen [11]
  Drug uptake: 8.6%
Stomach [12]
  Drug uptake: 1.5%
[13]
  Drug uptake: 8.4%
Bone [14]
  Drug uptake: 0.52%
Intestine [15]
  Drug uptake: 0.13%
Lung [16]
  Drug uptake: 0.38%
[17]
  Drug uptake: 8.6%
[18]
  Drug uptake: 18.8%
Thyroid gland [19]
  Drug uptake: 3.3%
Thyroid gland [20]
  Drug uptake: 5.5%
Stomach [21]
  Drug uptake: 0.83%
Spleen [22]
  Drug uptake: 0.47%
Stomach [23]
  Drug uptake: 3.4%
Intestine [24]
  Drug uptake: 0.71%
Bone [25]
  Drug uptake: 0.58%
Lung [26]
  Drug uptake: 0.25%
Stomach [27]
  Drug uptake: 6.6%
Spleen [28]
  Drug uptake: 7.2%
[29]
  Drug uptake: 7.8%
Spleen [30]
  Drug uptake: 2.4%
Intestine [31]
  Drug uptake: 0.54%
Stomach [32]
  Drug uptake: 0.19%
Stomach [33]
  Drug uptake: 9.4%
Thyroid gland [34]
  Drug uptake: 0.17%
Lung [35]
  Drug uptake: 5.6%
Lung [36]
  Drug uptake: 1.6%
Bone [37]
  Drug uptake: 2.1%
Spleen [38]
  Drug uptake: 0.89%
Intestine [39]
  Drug uptake: 3.9%
[40]
  Drug uptake: 14.7%
[41]
  Drug uptake: 7.7%
Bone [42]
  Drug uptake: 0.62%
Lung [43]
  Drug uptake: 0.07%
[44]
  Drug uptake: 16%
[45]
  logD: 1.1
[46]
  Drug uptake: 17.3%
[47]
  Drug uptake: 7%
Lung [48]
  Drug uptake: 2.9%
Spleen [49]
  Drug uptake: 1.8%
